Source: PubChem BioAssay AID270 (DTP/NCI, 2004)
“And” between values parts separate entries of the source, which are not always exact repeats. Equal values may be shown once. Records with an inconclusive call do not appear.

Tested on: BDF1 mice, s.c. Lewis lung carcinoma, T/C %
Experiment: NCI In Vivo Anticancer Drug Screen. Data for tumor model Lewis Lung Carcinoma (subcutaneous) in B6D2F1 (BDF1) mice
In short: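 Readout: survival or tumor size, expressed as treated (T) over vehicle control (C). Transplantable tumor implanted in mice; compound given to the treated group.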

[1] = endpoint: mean tumor weight, dose: 50.0 mg/kg/injection, schedule: Q01DX011 (ip), vehicle: saline, higher = larger tumour
[2] = endpoint: median survival time, dose: 12.5 mg/kg/injection, schedule: Q01DX009 (ip), vehicle: saline, higher = longer survival

## COc1cc([C@@H]2c3cc4c(cc3[C@H](O)[C@H]3COC(=O)[C@H]23)OCO4)cc(OC)c1OC
endpoint: mean tumor weight, dose: 1.0 mg/kg/injection, schedule: Q01DX011 (ip), vehicle: carboxymethylcellulose (CMC), higher = larger tumour
  T/C: 84 % of control
endpoint: mean tumor weight, dose: 2.0 mg/kg/injection, schedule: Q01DX011 (ip), vehicle: carboxymethylcellulose (CMC), higher = larger tumour
  T/C: 36 % of control

## CC[CH2][Pb]([CH2]CC)([CH2]CC)[N]1C(=O)c2ccccc2C1=O
endpoint: median survival time, dose: 3.13 mg/kg/injection, schedule: Q01DX009 (ip), vehicle: Klucel (hydroxypropylcellulose) (HPC), higher = longer survival
  T/C: 96 % of control
endpoint: median survival time, dose: 6.25 mg/kg/injection, schedule: Q01DX009 (ip), vehicle: Klucel (hydroxypropylcellulose) (HPC), higher = longer survival
  T/C: 87 % of control
endpoint: median survival time, dose: 12.5 mg/kg/injection, schedule: Q01DX009 (ip), vehicle: Klucel (hydroxypropylcellulose) (HPC), higher = longer survival
  T/C: 102 % of control

## CCCCOC(=O)Nc1ccc(OCC)cc1
endpoint: mean tumor weight, dose: 35.0 mg/kg/injection, schedule: Q01DX011 (ip), vehicle: carboxymethylcellulose (CMC), higher = larger tumour
  T/C: 63 % of control
endpoint: mean tumor weight, dose: 70.0 mg/kg/injection, schedule: Q01DX011 (ip), vehicle: carboxymethylcellulose (CMC), higher = larger tumour
  T/C: 85 % of control
endpoint: mean tumor weight, dose: 140.0 mg/kg/injection, schedule: Q01DX011 (ip), vehicle: carboxymethylcellulose (CMC), higher = larger tumour
  T/C: 68 % of control
endpoint: mean tumor weight, dose: 280.0 mg/kg/injection, schedule: Q01DX011 (ip), vehicle: carboxymethylcellulose (CMC), higher = larger tumour
  T/C: 69 % of control

## ClCCn1cnc2c(SCc3ccccc3)ncnc21
endpoint: mean tumor weight, dose: 60.0 mg/kg/injection, schedule: Q01DX011 (ip), vehicle: other, higher = larger tumour
  T/C: 107 % of control
endpoint: mean tumor weight, dose: 120.0 mg/kg/injection, schedule: Q01DX011 (ip), vehicle: other, higher = larger tumour
  T/C: 77 % of control
endpoint: mean tumor weight, dose: 240.0 mg/kg/injection, schedule: Q01DX011 (ip), vehicle: other, higher = larger tumour
  T/C: 46 % of control

## C[n+]1cccc(C(=O)O)c1
[1]
  T/C: 116 % of control
endpoint: mean tumor weight, dose: 100.0 mg/kg/injection, schedule: Q01DX011 (ip), vehicle: saline, higher = larger tumour
  T/C: 75 % of control
endpoint: mean tumor weight, dose: 200.0 mg/kg/injection, schedule: Q01DX011 (ip), vehicle: saline, higher = larger tumour
  T/C: 60 % of control

## CCc1c(CC(=O)O)c2cc(C)ccc2n1Cc1ccc(Cl)cc1
endpoint: mean tumor weight, dose: 12.5 mg/kg/injection, schedule: Q01DX011 (ip), vehicle: saline, higher = larger tumour
  T/C: 72 % of control
endpoint: mean tumor weight, dose: 25.0 mg/kg/injection, schedule: Q01DX011 (ip), vehicle: saline, higher = larger tumour
  T/C: 104 % of control
[1]
  T/C: 70 % of control

## O=C1CC(c2ccc(O)cc2)CC(=O)C1C(C1CC=CCC1)N(CCCl)CCCl (stereo unspecified)
endpoint: median survival time, dose: 25.0 mg/kg/injection, schedule: Q01DX009 (ip), vehicle: Klucel (hydroxypropylcellulose) (HPC), higher = longer survival
  T/C: 122 % of control
endpoint: median survival time, dose: 50.0 mg/kg/injection, schedule: Q01DX009 (ip), vehicle: Klucel (hydroxypropylcellulose) (HPC), higher = longer survival
  T/C: 123 % of control
endpoint: median survival time, dose: 100.0 mg/kg/injection, schedule: Q01DX009 (ip), vehicle: Klucel (hydroxypropylcellulose) (HPC), higher = longer survival
  T/C: 115 % of control
endpoint: median survival time, dose: 200.0 mg/kg/injection, schedule: Q01DX009 (ip), vehicle: Klucel (hydroxypropylcellulose) (HPC), higher = longer survival
  T/C: 111 % of control
endpoint: median survival time, dose: 400.0 mg/kg/injection, schedule: Q01DX009 (ip), vehicle: Klucel (hydroxypropylcellulose) (HPC), higher = longer survival
  T/C: 98 % of control

## CC1(C)N=C(N)N=C(N)N1c1ccc(F)c(C(F)(F)F)c1
[2]
  T/C: 121 % of control
endpoint: median survival time, dose: 25.0 mg/kg/injection, schedule: Q01DX009 (ip), vehicle: saline, higher = longer survival
  T/C: 111 % of control

## NCCCNCCSP(=O)(O)O
endpoint: median survival time, dose: 300.0 mg/kg/injection, schedule: Q01DX001 (ip), vehicle: saline, higher = longer survival
  T/C: 93 % of control and 100 % of control
endpoint: median survival time, dose: 500.0 mg/kg/injection, schedule: Q01DX001 (ip), vehicle: saline, higher = longer survival
  T/C: 77 % of control and 78 % of control

## Cc1ccc(Oc2ccc3cc[n+](C)cc3c2)cc1
endpoint: median survival time, dose: 6.25 mg/kg/injection, schedule: Q01DX009 (ip), vehicle: saline, higher = longer survival
  T/C: 96 % of control
[2]
  T/C: 101 % of control

## O=C(NP(=O)(N1CC1)N1CC1)c1cc(I)ccc1I
endpoint: median survival time, dose: 1.0 mg/kg/injection, schedule: Q02DX009 (ip), vehicle: saline with Tween-80, higher = longer survival
  T/C: 110 % of control
endpoint: median survival time, dose: 2.0 mg/kg/injection, schedule: Q02DX009 (ip), vehicle: saline with Tween-80, higher = longer survival
  T/C: 112 % of control
endpoint: median survival time, dose: 4.0 mg/kg/injection, schedule: Q02DX009 (ip), vehicle: saline with Tween-80, higher = longer survival
  T/C: 117 % of control
endpoint: median survival time, dose: 8.0 mg/kg/injection, schedule: Q02DX009 (ip), vehicle: saline with Tween-80, higher = longer survival
  T/C: 117 % of control
endpoint: median survival time, dose: 16.0 mg/kg/injection, schedule: Q02DX009 (ip), vehicle: saline with Tween-80, higher = longer survival
  T/C: 106 % of control
endpoint: median survival time, dose: 32.0 mg/kg/injection, schedule: Q02DX009 (ip), vehicle: saline with Tween-80, higher = longer survival
  T/C: 102 % of control
endpoint: median survival time, dose: 64.0 mg/kg/injection, schedule: Q02DX009 (ip), vehicle: saline with Tween-80, higher = longer survival
  T/C: 98 % of control
